The target in the first experiment is c-Met (Homo sapiens, UniProt P08581). The experiment is described as follows: Ki determination for the inhibition of c-Met kinase activity (standard coupled enzyme system). The class given is biochemical. As to conditions: coupled enzyme system, 200 μM ATP, 80 nM c-Met, 30° C.; read-out: c-Met Ki. How it is done:
Ki Determination for the Inhibition of c-Met
Reactions were carried out in a solution containing 100 mM HEPES (pH 7.5), 10 mM MgCl2, 25 mM NaCl, 300 μM NADH, 1 mM DTT, and 1.5% DMSO. Final substrate concentrations in the assay were 200 μM ATP (Sigma Chemicals, St Louis, Mo.) and 10 μM polyGluTyr (Sigma Chemical Company, St. Louis). Reactions were carried out at 30° C. and 80 nM c-Met. Final concentrations of the components of the coupled enzyme system were 2.5 mM phosphoenolpyruvate, 300 μM NADH, 30 μg/ml pyruvate kinase and 10 μg/ml lactate dehydrogenase.
An assay stock buffer solution was prepared containing all of the reagents listed above with the exception of ATP and a test compound of the present invention. […] The reaction was initiated by the addition of 20 μL of ATP (final concentration 200 μM). Rates of reaction were obtained using a Molecular Devices Spectramax plate reader (Sunnyvale, Calif.) over 10 minutes at 30° C. The Ki values were determined from the rate data as a function of inhibitor concentration.
c-Met, sequence (P08581 25-1390): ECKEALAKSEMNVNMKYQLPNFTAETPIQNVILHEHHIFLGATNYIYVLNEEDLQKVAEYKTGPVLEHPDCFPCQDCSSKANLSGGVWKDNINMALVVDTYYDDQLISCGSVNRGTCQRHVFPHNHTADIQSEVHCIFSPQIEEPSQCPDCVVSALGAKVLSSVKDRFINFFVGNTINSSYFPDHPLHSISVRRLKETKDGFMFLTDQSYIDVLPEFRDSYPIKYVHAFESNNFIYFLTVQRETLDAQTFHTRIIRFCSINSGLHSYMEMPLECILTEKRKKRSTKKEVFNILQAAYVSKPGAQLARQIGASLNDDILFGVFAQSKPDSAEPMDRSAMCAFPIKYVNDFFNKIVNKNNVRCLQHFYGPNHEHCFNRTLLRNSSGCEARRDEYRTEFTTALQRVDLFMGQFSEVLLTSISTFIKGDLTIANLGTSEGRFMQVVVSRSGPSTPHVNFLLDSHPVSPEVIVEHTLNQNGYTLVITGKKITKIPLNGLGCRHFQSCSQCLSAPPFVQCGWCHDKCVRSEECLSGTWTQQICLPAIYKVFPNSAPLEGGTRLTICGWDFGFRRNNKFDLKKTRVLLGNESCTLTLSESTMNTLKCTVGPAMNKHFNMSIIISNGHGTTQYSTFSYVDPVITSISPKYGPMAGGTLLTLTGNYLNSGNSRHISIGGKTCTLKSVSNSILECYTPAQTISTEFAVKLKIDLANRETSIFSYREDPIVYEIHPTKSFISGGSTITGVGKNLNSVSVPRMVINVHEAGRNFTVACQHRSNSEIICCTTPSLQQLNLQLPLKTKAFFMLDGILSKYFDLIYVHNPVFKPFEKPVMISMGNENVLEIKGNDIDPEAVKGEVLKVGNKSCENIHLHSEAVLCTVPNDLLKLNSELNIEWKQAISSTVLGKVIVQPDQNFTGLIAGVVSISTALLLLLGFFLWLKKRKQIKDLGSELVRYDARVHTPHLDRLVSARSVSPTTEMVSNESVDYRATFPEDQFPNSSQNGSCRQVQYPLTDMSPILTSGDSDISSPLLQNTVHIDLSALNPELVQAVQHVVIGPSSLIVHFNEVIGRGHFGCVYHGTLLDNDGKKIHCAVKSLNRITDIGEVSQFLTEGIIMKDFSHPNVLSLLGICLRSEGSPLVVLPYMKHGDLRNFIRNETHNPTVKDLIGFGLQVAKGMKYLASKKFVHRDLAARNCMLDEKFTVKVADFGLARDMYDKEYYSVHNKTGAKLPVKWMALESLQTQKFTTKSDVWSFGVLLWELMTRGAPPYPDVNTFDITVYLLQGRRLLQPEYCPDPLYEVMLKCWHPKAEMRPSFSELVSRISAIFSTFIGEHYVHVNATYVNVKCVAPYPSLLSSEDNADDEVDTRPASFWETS
The term Ki denotes a dissociation constant, usually derived from enzyme kinetics or from competition with a known ligand. In the case of `Oc1ccc(OCc2nnc3ccc(Nc4cccc(Cl)c4)nn23)cc1` [Compound 391], the Ki lay within 100 to 2000 nM.

Take `Oc1ccccc1SCc1nnc2ccc(Nc3cccc(Cl)c3)nn12` [Compound 406]: the Ki was more than 2000 nM.

In the case of `COc1cccc(Cc2nnc3ccc(Nc4cccc(Cl)c4)nn23)c1` [Compound 439], the Ki was in the range of 100 to 2000 nM.

Regarding `COC(=O)c1c(O)cccc1NCc1nnc2ccc(Nc3cccc(Cl)c3)nn12` [Compound 332], the Ki was in the range of 100 to 2000 nM.

For `NC(=O)c1ccc(NCc2nnc3ccc(Nc4cccc(Cl)c4)nn23)cc1` [Compound 467], the Ki fell in the range of 100 to 2000 nM.

In the case of `Oc1ccc(C2(c3nnc4ccc(Nc5ccnc(Cl)c5)nn34)CC2)cc1` [Compound 520], the Ki was less than 100 nM.

With `Oc1ccc(Cc2nnc3ccc(NC4CCNCC4)nn23)cc1` [Compound 322], the Ki was more than 2000 nM.

For `Fc1ccc(Cl)cc1Nc1ccc2nnc(Cc3ccc4c(c3)OCO4)n2n1` [Compound 362], the Ki was less than 100 nM.

Turning to `CC(c1ccc(O)cc1)c1nnc2n1N=C(c1ccccc1)CS2` (stereo not drawn) [Compound 525], the Ki was less than 100 nM.

As to `Clc1cccc(Nc2ccc3nnc(Cn4ccc5ncccc54)n3n2)c1` [Compound 418], the Ki is less than 100 nM.

As to `CC1=Nn2c(Cc3ccc(O)cc3)nnc2SC1` [Compound 542], the Ki fell in the range of 100 to 2000 nM.

With `C[C@@H](c1ccc(O)cc1)c1nnc2ccc(NC3CCCC(C(F)(F)F)C3)nn12` (stereo partly drawn) [Compound 521], the Ki was less than 100 nM.

With `Oc1ccc(Cc2nnc3ccc(Nc4nc5ccc(Cl)cc5s4)nn23)cc1` [Compound 481], the Ki lay within 100 to 2000 nM.

As for `COC(=O)c1ccc(NCc2nnc3ccc(Nc4cccc(Cl)c4)nn23)nc1` [Compound 479], the Ki fell in the range of 100 to 2000 nM.

Take `Fc1ccc(NCc2nnc3ccc(Nc4cccc(Cl)c4)nn23)cc1` [Compound 343]: the Ki is more than 2000 nM.

For the molecule `C[C@@H](c1ccc(O)cc1)c1nnc2ccc(Nc3ccc(Cl)nc3)nn12` [Compound 514], the Ki was 100 to 2000 nM.

With `Fc1ccc(Cc2nnc3n2N=C(c2ccccc2)CS3)cc1` [Compound 527], the Ki is more than 2000 nM.

With `N#Cc1ccc(OCc2nnc3ccc(Nc4cccc(Cl)c4)nn23)c(N)c1` [Compound 430], the Ki was more than 2000 nM.

For the molecule `CC1(C)CC(Nc2ccc3nnc(Cc4ccc(O)cc4)n3n2)CCO1` (stereo not drawn) [Compound 302], the Ki fell in the range of 100 to 2000 nM.

As for `Fc1ccc(OCc2nnc3ccc(Nc4cccc(Cl)c4)nn23)cc1F` [Compound 378], the Ki was more than 2000 nM.

For `O=c1[nH]ccc2c1ccn2Cc1nnc2ccc(Nc3cccc(Cl)c3)nn12` [Compound 428], the Ki was less than 100 nM.

Take `Fc1ccc(SCc2nnc3ccc(Nc4cccc(Cl)c4)nn23)c(F)c1` [Compound 405]: the Ki is more than 2000 nM.

Turning to `C[C@@H](c1ccc(O)cc1)c1nnc2ccc(Nc3nc4ccc(Cl)cc4s3)nn12` [Compound 483], the Ki was less than 100 nM.

As to `Oc1ccc(Cc2nnc3ccc(N4CCc5ccccc5C4)nn23)cc1` [Compound 422], the Ki lay in the range of 100 to 2000 nM.

Turning to `Cc1ccc(OCc2nnc3ccc(Nc4cccc(Cl)c4)nn23)cn1` [Compound 372], the Ki is more than 2000 nM.

For `Oc1ccc(Cc2nnc3ccc(NC4CCOCC4)nn23)cc1` [Compound 318], the Ki was 100 to 2000 nM.

Consider `Clc1cccc(Nc2ccc3nnc(CNc4cccc5[nH]ccc45)n3n2)c1` [Compound 464], for which the Ki was more than 2000 nM.

Consider `CC(=O)N[C@H]1CCCC[C@@H]1Nc1ccc2nnc([C@@H](C)c3ccc(O)cc3)n2n1` [Compound 448], for which the Ki was more than 2000 nM.

Consider `CC(C)C[C@H](NC(=O)OCc1ccccc1)C1=Nn2c(Cc3ccc(O)cc3)nnc2SC1` [Compound 532], for which the Ki is more than 2000 nM.

As to `Clc1cccc(Nc2ccc3nnc(Cc4c[nH]c5ccccc45)n3n2)c1` [Compound 460], the Ki was more than 2000 nM.

Regarding `COc1ccc(NCc2nnc3ccc(Nc4cccc(Cl)c4)nn23)c(O)c1` [Compound 351], the Ki fell in the range of 100 to 2000 nM.

Take `C[C@@H](c1ccc(O)cc1)c1nnc2ccc(Nc3cc(Cl)ccc3OCCN3CCCC3)nn12` [Compound 443]: the Ki lay within 100 to 2000 nM.

Consider `O=[N+]([O-])c1ncccc1OCc1nnc2ccc(Nc3cccc(Cl)c3)nn12` [Compound 408], for which the inhibitory constant (Ki) is more than 2000 nM.

Consider `CC1CC(Nc2ccc3nnc(Cc4ccc(O)cc4)n3n2)CC(C)(C)C1` (stereo not drawn) [Compound 370], for which the Ki is less than 100 nM.

As for `COc1ccc(Cc2nnc3ccc(Nc4ccc(F)c(Cl)c4)nn23)cc1` [Compound 425], the Ki was less than 100 nM.

For the molecule `Clc1cccc(Nc2ccc3nnc(CNc4ccncc4)n3n2)c1` [Compound 386], the Ki was more than 2000 nM.

As for `CN(C)c1ccc(Cc2nnc3ccc(Nc4cccc(Cl)c4)nn23)cc1` [Compound 457], the Ki was more than 2000 nM.

For the molecule `Clc1cccc(Nc2ccc3nnc(CCc4cccnc4)n3n2)c1` [Compound 368], the Ki is more than 2000 nM.

For the molecule `N#Cc1ccc(OCc2nnc3ccc(Nc4cccc(Cl)c4)nn23)cc1` [Compound 379], the Ki was more than 2000 nM.

As for `CCc1cccc(Nc2ccc3nnc(Cc4ccc(O)c(F)c4)n3n2)c1` [Compound 289], the Ki is 100 to 2000 nM.

The experiment is the same for the next values; noted with them: coupled enzyme system, 200 μM ATP, 10 μM polyGluTyr, 80 nM c-Met, 30° C.; read-out: c-Met Ki.
With `COc1cccc(Nc2ccc3nnc(Cc4ccc5c(c4)OCO5)n3n2)c1` [Compound 243], the Ki was 100 to 2000 nM.

Take `Oc1ccc(Cc2nnc3ccc(N[C@H]4CC[C@H](O)CC4)nn23)cc1` [Compound 272]: the Ki was 100 to 2000 nM.

Take `CCc1cccc(Nc2ccc3nnc(Cc4ccncc4)n3n2)c1` [Compound 222]: the Ki is more than 2000 nM.

As to `Oc1ccc(Cc2nnc3sc(Nc4cccc(F)c4F)nn23)cc1F` [Compound 99], the Ki is 100 to 2000 nM.

As for `Clc1cc(Cl)cc(Nc2ccc3nnc(Cc4ccncc4)n3n2)c1` [Compound 247], the Ki lay in the range of 100 to 2000 nM.

For `COC(=O)c1cccc(Nc2nn3c(Cc4ccc(O)cc4)nnc3s2)c1` [Compound 61], the Ki was less than 100 nM.

As for `Oc1ccc(Cc2nnc3ccc(-c4ccccc4)nn23)cc1F` [Compound 213], the inhibition constant Ki fell in the range of 100 to 2000 nM.

Consider `Oc1ccc(Cc2nnc3ccc(Nc4cccc(C(F)(F)F)c4)nn23)cc1` [Compound 223], for which the Ki is less than 100 nM.

Take `CC1CCCC(Nc2ccc3nnc(Cc4ccc(O)cc4)n3n2)C1` (stereo not drawn) [Compound 284]: the inhibition constant Ki is less than 100 nM.

Turning to `COc1ccccc1Nc1nn2c(Cc3ccc(O)c(Cl)c3)nnc2s1` [Compound 31], the Ki was in the range of 100 to 2000 nM.

For the molecule `Cc1ccc(Nc2nn3c(Cc4ccc(O)cc4)nnc3s2)cc1C` [Compound 72], the Ki fell in the range of 100 to 2000 nM.

Turning to `Fc1ccc(Cc2nnc3sc(Nc4cccc(Cl)c4)nn23)cc1` [Compound 171], the Ki is less than 100 nM.

`COc1ccc(Cc2nnc3sc(Cc4ccccc4)nn23)cc1` [Compound 21]: the Ki is more than 2000 nM.

As to `CC(C)Oc1cccc(Nc2ccc3nnc(Cc4ccc(O)cc4)n3n2)c1` [Compound 181], the Ki is less than 100 nM.

Consider `CN1CCC(Nc2ccc3nnc(Cc4ccc(O)cc4)n3n2)CC1` [Compound 283], for which the Ki is 100 to 2000 nM.

Turning to `Oc1ccc(Cc2nnc3ccc(Nc4cccc(Cl)c4)nn23)cc1` [Compound 185], the Ki is less than 100 nM.

In the case of `Oc1ccc(Cc2nnc3sc(NC4CC4)nn23)cc1` [Compound 19], the Ki was more than 2000 nM.

Consider `CCC(C)c1ccc(Nc2ccc3nnc(Cc4ccc(O)cc4)n3n2)cc1` (stereo not drawn) [Compound 183], for which the Ki was in the range of 100 to 2000 nM.

For `O=C(Nc1cccc(Cl)c1)Nc1nn2c(Cc3ccc(O)cc3)nnc2s1` [Compound 112], the Ki is more than 2000 nM.

As for `OCc1cccc(Nc2ccc3nnc(Cc4ccc(O)c(Cl)c4)n3n2)c1` [Compound 261], the Ki lay in the range of 100 to 2000 nM.

Take `Oc1ccc(Cc2nnc3ccc(NCCN4CCOCC4)nn23)cc1` [Compound 204]: the Ki is more than 2000 nM.

As for `FC(F)(F)c1cccc(Nc2ccc3nnc(Cc4ccncc4)n3n2)c1` [Compound 227], the Ki is 100 to 2000 nM.

With `O=C(Nc1ccccc1)Nc1nn2c(Cc3ccc(O)cc3)nnc2s1` [Compound 113], the Ki was more than 2000 nM.

`Oc1cccc(Cc2nnc3sc(Nc4cccc(F)c4Cl)nn23)c1` [Compound 110]: the Ki fell in the range of 100 to 2000 nM.

Take `Oc1ccc(Cc2nnc3ccc(Nc4cccc(F)c4)nn23)cc1Cl` [Compound 219]: the Ki was less than 100 nM.

Take `CC(O)c1cccc(Nc2ccc3nnc(Cc4ccc(O)c(F)c4)n3n2)c1` (stereo not drawn) [Compound 256]: the Ki fell in the range of 100 to 2000 nM.

Take `Oc1ccc(Cc2nnc3sc(Nc4ccccc4Cl)nn23)cc1` [Compound 78]: the Ki is less than 100 nM.

Regarding `CC(C)C(CO)Nc1ccc2nnc(Cc3ccc(O)cc3)n2n1` (stereo not drawn) [Compound 282], the Ki lay in the range of 100 to 2000 nM.

Regarding `Oc1ccc(Cc2nnc3ccc(N[C@@H]4CCOC4)nn23)cc1` [Compound 274], the Ki was in the range of 100 to 2000 nM.

Regarding `COc1ccc(Nc2nn3c(Cc4ccc(O)c(Cl)c4)nnc3s2)cc1` [Compound 39], the Ki was in the range of 100 to 2000 nM.

On to `Oc1ccc(Cc2nnc3ccc(NCc4cccc(F)c4)nn23)cc1` [Compound 268], for which the Ki is 100 to 2000 nM.

As to `Oc1ccc(Cc2nnc3ccc(Nc4ccccc4)nn23)cc1` [Compound 178], the Ki is less than 100 nM.

As for `O=C(Nc1nn2c(Cc3ccc(O)cc3)nnc2s1)c1ccccc1` [Compound 57], the Ki is more than 2000 nM.

Regarding `c1cc2c(cc1Cc1nnc3sc(NCC4CCCO4)nn13)OCO2` (stereo not drawn) [Compound 42], the Ki is more than 2000 nM.

Consider `COc1ccc(Cc2nnc3ccc(Nc4cc(F)cc(F)c4)nn23)cc1` [Compound 252], for which the Ki is less than 100 nM.

(Values after patent publication US7998987B2, “Inhibitors of c-Met and uses thereof” (Vertex Pharmaceuticals Incorporated, priority 2005, dated 2011).)
